# Source: US20210017607A1, “Methods of Predicting Responsiveness to Cancer Therapies” (The University of Chicago, priority 2019, published 2021)
# Square brackets hold non-standard residues; d marks the D form. Peptide text beside a SMILES is read from it. * marks the point of attachment. dPhe(4-NHCONH2) = NC(=O)Nc1ccc(C[C@@H](N)C(=O)O)cc1; Dihydroorotyl(S) = O=C1C[C@@H](C(=O)*)NC(=O)N1; dPhe(4-Cl) = N[C@H](Cc1ccc(Cl)cc1)C(=O)O; Phe(4-NH2) = Nc1ccc(C[C@H](N)C(=O)O)cc1; d2Nal = N[C@H](Cc1ccc2ccccc2c1)C(=O)O; Lys(iPr) = CC(C)NCCCC[C@H](N)C(=O)O; d3Pal = N[C@H](Cc1cccnc1)C(=O)O
# Key:
# [1] = tested on: Myc-CAP (STING^lo) tumors; test: Myc-CAP syngeneic tumor growth; assay type: in vivo, mouse; conditions: immunocompetent syngeneic mice
# Experimental: FIGS. 25A and 25B. […] (25A-25B) Myc-CAP (STING^lo) tumor-bearing syngeneic mice were treated with the indicated drug(s) until untreated tumors reached approx. 2500 mm^3. Tumor volume curves for duration of treatment are shown.
# FIGS. 26A-26D. […] Immunodeficient athymic nude (26A) and NOD-SCID (26B) mice were engrafted with Myc-CAP (STING^lo) tumors and treated with the indicated drug(s) until untreated tumors reached approx. 2000 mm^3. Tumor volume curves for duration of treatment are shown. For 26A-26B, n=3-4 mice per group. (26C-26D) Single-cell suspensions were generated from harvested tumors and analyzed by flow cytometry for the indicated immune cell populations and their activation states. Data are represented relative to CD45+ immune cells. For 26C-26D, n=3-5 animals per treatment group from 2 independent experiments. Significance/p-values were calculated by […].
# FIGS. 29A-29M. […] Myc-CAP cancer cells were treated with the indicated drugs singly or in combination for 36 hours. (29A) Cells were stained with anti-mouse specific p-γH2AX antibody and a fluorescently labeled secondary antibody for determination of DNA DSBs, which were quantified by confocal microscopy. (29B) Protein extracts from cells in 29A were analyzed for the indicated pharmacodynamic biomarkers by western blotting; (29C) Annexin V-PI staining was done to assess frequency of live cells (Annexin V^− PI^−) following drug treatment. (29D) Ultracentrifugation was utilized to purify microvesicles (MVs) from supernatants in treatment groups in (29A) and associated DNA DSBs was quantified by Nanodrop®. Independent experiments n=2. (29E) Ultracentrifugation was utilized to purify MVs from supernatants in indicated treatment groups in FIG. 17A, and associated DNA DSBs were quantified by Nanodrop®; n=2 independent experiments. (29F) Syngeneic mice were engrafted with Myc-CAP (STING^lo) cells, and tumors were harvested when the tumor volume reached 400 mm^3. Single cell suspensions of the tumors were treated with the indicated drug(s), in the presence or absence of GW4869 (MV biogenesis inhibitor). (29G) Bone marrow derived macrophage (BMDMs) were co-cultured for 30 hours with supernatants (−/+ exogenous 50 units of DNase I pre-treatment for 30 minutes) from Myc-CAP cells that were treated with the indicated drug(s) for 36 hours. (29H) cGAMP (10 μg/mL) was pre-incubated with 10 units of DNAse I or mock control for 30 minutes and then added to BMDMs for 30 hours. (29I-29L) STING^+/+/STING^−/− BMDMs were co-cultured for 36 hours with supernatants from Myc-CAP and B6-Myc cancer cells that were treated with the indicated drug(s) for 36 hours. Supernatants were collected from 29F-29L at the end of treatment and analyzed for IFNβ1 by ELISA. (29M) Myc-CAP (STING^lo) tumor-bearing mice were treated with the indicated drug(s) until tumors first reached approx. 2500 mm^3. For the degerelix/rucaparib/buparlisib combination, additional cohorts of mice underwent concomitant treatment with STING antagonist H-151 or GW4869. Tumor volume was recorded daily for duration of experiment. For in vitro experiments, n=2 independent experiments and for in vivo experiments n=3-4 animals /group.
# [2] = tested on: Myc-CAP (STING^lo) tumors; test: Immune profiling of Myc-CAP tumors (flow cytometry, qRT-PCR); assay type: in vivo, mouse; conditions: degarelix for 10 days
# Experimental: FIGS. 24A-24G. […] Myc-CAP (STING^lo) tumor-bearing syngeneic mice were treated with degarelix (chemical castration) for 10 days. At the end of treatment, tumors were harvested and analyzed by flow cytometry for infiltration of CD45+ immune cells (24A), macrophages (24B) and CD4/CD8 T cells (24C-24D). Mean fluorescence intensity (MFI) is depicted for PD-Ll expression on CD45−/CD45+ cells (24E-24F) and TAMs (24G) within the TME; n=3-5 animals/group; Significance/p-values were calculated by Un-paired t-test.
# FIGS. 26A-26D. […] (26C-26D) Single-cell suspensions were generated from harvested tumors and analyzed by flow cytometry for the indicated immune cell populations and their activation states. […] Significance/p-values were calculated by […].
# FIGS. 27A-27D. […] Single-cell suspensions were generated from harvested tumors and analyzed by flow cytometry for CD4 infiltration (27A) and activation (27C). (27B, 27D) Single-cell suspensions were generated from harvested tumors and analyzed by flow cytometry for the indicated immune cell populations and their activation states. […] Significance/p-values were calculated by one-way ANOVA.
# FIGS. 28A and 28B. […] (28B) Single-cell suspensions were generated from harvested tumors and analyzed by flow cytometry for macrophage (F4/80+) Arginase I expression. n=3 animals/group; Significance/p-values were calculated by one-way ANOVA. […]
smiles,measurement,setting,value
CC(=O)N[C@H](Cc1ccc2ccccc2c1)C(=O)N[C@H](Cc1ccc(Cl)cc1)C(=O)N[C@H](Cc1cccnc1)C(=O)N[C@@H](CO)C(=O)N[C@@H](Cc1ccc(NC(=O)[C@@H]2CC(=O)NC(=O)N2)cc1)C(=O)N[C@H](Cc1ccc(NC(N)=O)cc1)C(=O)N[C@@H](CC(C)C)C(=O)N[C@@H](CCCCNC(C)C)C(=O)N1CCC[C@H]1C(=O)N[C@H](C)C(N)=O [degarelix] (Ac-[d2Nal][dPhe(4-Cl)][d3Pal]S[Phe(4-NH2)](Dihydroorotyl(S))[dPhe(4-NHCONH2)]L[Lys(iPr)]P[dA]-NH2),tumor growth response,[1],not observed
same,immune infiltration and PD-L1 expression within the TME after chemical castration,[2],increases macrophage and CD4+ T cell infiltration and PD-L1 expression
